How the values were obtained:
[1] = biological target: T1, DNA binding by NFAT1 (Homo sapiens, UniProt Q13469); assay: Native EMSA of the effect on DNA binding by NFAT1; format: biochemical; settings: FIG. 12C; increasing concentrations; probes with UV 365 nm 15 min; compared to control lane 3
T1 construct: human NFAT1 protein (residue 399-676, NFAT1-DBD)
T1 sequence (Q13469 399-676): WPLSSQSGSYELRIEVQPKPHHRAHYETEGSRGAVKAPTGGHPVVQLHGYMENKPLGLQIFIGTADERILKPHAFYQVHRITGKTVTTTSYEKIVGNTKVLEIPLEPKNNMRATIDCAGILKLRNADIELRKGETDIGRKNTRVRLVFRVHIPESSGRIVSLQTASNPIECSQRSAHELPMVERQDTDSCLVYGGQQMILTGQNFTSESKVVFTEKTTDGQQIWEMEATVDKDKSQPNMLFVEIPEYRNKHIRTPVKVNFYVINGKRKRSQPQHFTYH
Protocol: All binding reactions contain 10 μM 27 mer dsDNA (5′6-FAM labeled) with a NFAT-binding site, and various combinations of NFAT1 protein (14 μM), FA (1% v/v), 4AMT-LC-SDA (20 μM), with or without UV illumination (365 nm, LED, 30 Watt, sample distance 2 cm, exposure time 15 min at 4 degree C.). 10 μl of the binding reaction is run on a 10% PAGE 0.5×TBE gel. The same gel was visualized by FAM fluorescence for DNA (top) and by Coomassie blue stain for protein (bottom). The higher smearing bands in lane 3, 8, 9, and 10 are most likely non-specific protein complexes often seen when an excessive amount of protein is used to ensure all DNA is bound.
The binding reactions were performed in a buffer of 20 mM Hepes pH 7.6, 150 mM NaCl, 1 mM DTT, 12% glycerol. Typically protein and DNA are mixed to bind at room temperature for 30 min, followed by addition of BFPX probes for an additional 15 min and then UV illumination. In the case of FA treatment, the reaction time is 10 min at room temperature and then quenched by 250 mM glycine. When included (as indicated by a positive sign), the binding reaction contains 10 μM 27 mer dsDNA (Cy5-labeled) with a NFAT-binding site (the antigen receptor response element 2, ARRE2, from the IL-2 promoter, 5′-Cy5-[sequence]-3′ (SEQ ID NO: 2), the complementary strand is not labeled), 24 μM of the DNA binding domain (DBD) of human NFAT1 protein (residue 399-676, NFAT1-DBD). The UV illumination (as indicated by a positive sign) was carried out using a LED Chip (21.4 mm×21.4 mm, 365-370 nm, 30 Watt, sample distance 2 cm, exposure time 2-15 min at 4 degree C., here the exposure time is 15 min). Half of the binding reaction (7.5 μl) was run on a 10% PAGE 0.5×TBE gel and visualized by Cy5 fluorescence on DNA. The small amount of single stranded DNA is due to incomplete annealing. The higher smearing bands are most likely non-specific protein complexes. Neither of these experimental imperfections affected the main conclusion of this experiment because the double stranded-DNA bands and the specific NFAT-DNA complex bands (the middle sharp bands) are well defined and can be monitored without the interference of the other bands.
The presence of both DNA and protein in the same shifted band can be checked by the FAM fluorescence signal (top) and Coomassie stain (bottom), respectively (free NFAT is positively charged and not observable under the EMSA condition).

[2] = biological target: T2, MEF2A/DNA complex (Homo sapiens, UniProt Q02078); assay: In vitro photo-crosslinking of assembled MEF2/DNA complex, read on denaturing SDS/urea gel or agarose gel; format: biochemical; settings: for formation of covalent MEF2/DNA crosslinked complex: probe + UV, denaturing gel
T2 construct: human MEF2A DBD (residues 2-95); made in house
T2 sequence (Q02078 2-95): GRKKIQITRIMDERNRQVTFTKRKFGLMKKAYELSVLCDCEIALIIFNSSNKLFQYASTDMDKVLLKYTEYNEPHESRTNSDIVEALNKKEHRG
Text: In vitro assays have confirmed the success and the efficiency of the demo probe (AMT-LC-SDA) in crosslinking double strand DNA of various contents and DNA-binding protein human myocyte enhancer factor 2A (MEF2A) (1-95 aa) (FIG. 5C-FIG. 5E). The solid crosslinking is confirmed for the probe with UV photo crosslinking conditions by denaturing or digestive approaches such as running with 8.3 M urea gel, SDS gel, combined with sample with overnight digestion of proteinase K at 65 Celsius and denatured at high temperature of 95 Celsius with SDS loading dye. […] Under these harsh evaluation conditions, the protein got digested on the crosslinking complex thoroughly, yet the remaining crosslinked amino acids residuals still have made the DNA to be in a larger size and shifted clearly compared to other controls, which is indicated by the bold shaped arrow. Agarose gel was also used for its bigger pore size to estimate the crosslinking efficiency (UV 2 hrs), estimated by the amount of the left free DNA, our probe has reached around 30-60% efficiency (FIG. 5E), which is much higher than the UV-initiated protein DNA crosslinking without the use of a probe (10-20%) as reported in Nature Communications, volume 11, Article number: 3019 (2020). […] This further supports the idea of applying this probe for replacement of formaldehyde, it crosslinks the protein only within the proximity of nucleic acids, thereby largely reducing the random protein-protein crosslinking noise and helps to preserve the native state of protein epitopes.
The BFPX probe 4AMT-LC-SDA was synthesized with good yield by the NHS-amine chemistry using psoralen and diazirine derivatives (FIG. 5A, FIG. 5B). To test its photo crosslinking ability, human transcription factor MEF2A (the MADS-box/MEF2 domain) and double strand DNA containing a MEF2 binding site were used. We first used electrophoresis mobility shift assay (EMSA) to validate the activity of the purified recombinant MEF2A DNA-binding domain. After finding out the optimal protein to DNA ratio, the in vitro assembled MEF2/DNA complex was then subject to photocrosslinking in the presence or absence of the 4AMT-LC-SDA probe with or without UV illumination. Multiple other control experiments were carried out in parallel to test the specificity of photocrosslinking between the DNA and MEF2. Specifically, parameters such as protein/DNA amounts (1:[…]), ratio, UV time (10 m to 4 hrs), wavelength (320 to 360 nm), LV source (mercury long lamp, LED) and their distance to the reaction mixture have been optimized along the course. The MEF2 Protein and DNA were incubated first to mimic an in vivo binding mode and stoichiometry, and then the mixture was incubated with our 4AMT-LC-SDA probe to undergo UV illumination. The results were evaluated by running denaturing gels (SDS in FIG. 5D, or Urea in FIG. 5C) against the high temperature denatured reaction mixtures and checking the respective protein (silver stain) or DNA (FAM label) signals. To further rule out any other possible false positiveness during loading, proteinase K digestion was applied to all the samples including the negative controls with SDS at 65 degrees.

Row | SMILES | effect on the binding of NFAT1 to DNA [1] | low probe concentration at which a significant amount of crosslinked protein complex was observed ([2]; MEF2/DNA, FIG. 7 lane 7, UV 365 nm) [µM] | crosslinking efficiency (percentage of native protein-DNA complex being covalently crosslinked) ([2]; MEF2/DNA, FIG. 7 lane 5 (12.5 μM probe) vs lanes 1-3, free DNA FAM signal, UV 365 nm) | UV illumination time at which crosslinked complex was visible ([2]; MEF2/DNA, probe 100 μM) [s] | UV illumination time at which crosslinking reached plateau ([2]; MEF2/DNA, probe 100 μM, plateau around 100 seconds and 5 min time points) | formation of covalent MEF2/DNA crosslinked complex [2] | crosslinking efficiency based on the DNA signal ([2]; MEF2/DNA, FIG. 8C lane 3 (10 μM probe) vs lane 1)
1 | C#CCCC1(CCNC(=O)CCCOc2c3occc3cc3ccc(=O)oc23)N=N1 [SPB-AAD, N-(2-(3-(but-3-yn-1-yl)-3H-diazirin-3-yl)ethyl)-4-((7-oxo-7H-furo[3,2-g]chromen-9-yl)oxy)butanamide] | little or no effect | 0.125 | 80-90% | 3 | around 100 seconds | formation of complexes that run as larger molecular species than both free protein and DNA | 
2 | C#CCCC1(CCNC(=O)CCOCCOCCOCCC(=O)NCCNC(=O)CCCOc2c3occc3cc3ccc(=O)oc23)N=N1 [SPB-PEG3-AAD] |  |  |  |  |  | highly efficient crosslinking | more than 90%
3 | C#CCCC1(CCNC(=O)CCOCCOCCOCCOCCNC(=O)CCCOc2c3occc3cc3ccc(=O)oc23)N=N1 [SPB-PEG4-AAD, N-(2-(3-(but-3-yn-1-yl)-3H-diazirin-3-yl)ethyl)-1-(4-((7-oxo-7H-furo[3,2-g]chromen-9-yl)oxy)butanamido)-3,6,9,12-tetraoxapentadecan-15-amide] | little or no effect |  |  |  |  |  | 

Reference: patent publication US20250388597A1, “BIFUNCTIONAL PHOTOCROSSLINKING PROBES FOR COVALENT CAPTURE OF PROTEIN-NUCLEIC ACID COMPLEXES IN CELLS” (UNIVERSITY OF SOUTHERN CALIFORNIA, priority 2022, published 2025)
